Holding throughout (experiment): Quantitative fluorescence assay for matrix metalloproteinases (cleavage of Mca-Pro-Leu-Gly-Leu-Dpa-Ala-Arg-NH2)
Assay type in all cases: biochemical

Assay [1] addresses T1, katalytische Domäne der MMP-3 (Homo sapiens, UniProt P08254).
T1 construct: Die katalytische Domäne der humanen MMP-3 wurde nach den Angaben in folgender Publikation kloniert; made in house
The following applies: for pKi: Dixon plot. The protocol:
Die katalytische Domäne der humanen MMP-3 wurde nach den Angaben in folgender Publikation kloniert: Ye Q-Z, Johnson LL, Hupe DJ, Baragi V: Purification and Characterization of the Human Stromelysin Catalytic Domain Expressed in Escherichia coli. Biochemistry (1992), 31, 11231-11235). Nach Rückfaltung des Enzyms und Gelfiltration an Sephadex G-50 (Laufpuffer 100 mM Tris-HCI pH 7,5, 10 mM CaCl2, 100 mM NaCI, 0,05% Brij 35) erhielten wir ein zu 95% reines Präparat.
(§1) Durch enzymatische Spaltung des synthetischen Substrates Mca-Pro-Leu-Gly-Leu-Dpa-Ala-Arg-NH2 durch die jeweilige Kollagenase, wird die fluoreszente Gruppe Mca ((7-Methoxycoumarin-4-yl)acetyl) vom internen Quencher Dpa ((N-3-(2,4-dinitrophenyl)-L-2,3-diaminopropienyl) getrennt. Dabei erfolgt eine starke Zunahme der Fluoreszenz im Messansatz, die am Fluorimeter quantifiziert werden kann (λex 328 nm, λem 393 nm) und innerhalb der ersten Minuten linear verläuft. Eine gewisse Spezifität des Tests für Matrix-Metalloproteinasen ergibt sich einerseits aus der Aminosäuresequenz -Pro-Leu-Gly-Leu- im Substrat und andererseits durch die gewählten Inkubationsbedingungen. Matrix-Metalloproteinasen spalten das Substrat an der Bindung Gly-Leu. Gemessen wird die proteolytische Restaktivität vorinkubierter Ansätze von Enzym und Inhibitor, wobei die Substrat- und Enzymkonzentration konstant gehalten und die Inhibitorkonzentration variiert wurde. Es wurden für jeden getesteten Inhibitor drei Messreihen mit unterschiedlicher Substratkonzentration aufgenommen. Aus der zeitabhängigen Fluoreszenzzunahme wird die Enzymaktivität in Fluoreszenzeinheiten pro min berechnet. Die Bestimmung der Ki-Werte erfolgte graphisch nach der Methode von DIXON (1953) durch Auftragung der reziproken Reaktionsgeschwindigkeit 1/v (y-Achse) gegen Inhibitorkonzentration (x-Achse).
(§2) 1984 µl Messpuffer (100mM Tris-HCI pH 7,5, 100 mM NaCI, 10 mM CaCl2, 0,05% Brij 35 bzw. 50 mM MES-NaOH, pH 6.0, 10 mM CaCl2, 100 mM NaCI, 0.05% Brij 35 im Fall der KaDo MMP-3) 2 µl Inhibitor, gelöst in DMSO, bzw. DMSO allein (nichtinhibierender Ansatz) 4 µl Enzym • 5 min. Vorinkubation des Enzym-Inhibitor-Gemischs bei Raumtemperatur unter Rühren • Start der Reaktion mit 10 µl Substrat gelöst in DMSO • Aufzeichnung der zeitabhängigen Fluoreszenzzunahme über 2 - 10 min.

Assay [2] has as its target T2, katalytische Domäne der MT1-MMP (Homo sapiens, UniProt P50281).
T2 construct: Die katalytische Domäne der humanen MT1-MMP wurde nach den Angaben in folgender Publikation kloniert; made in house
The protocol:
Die katalytische Domäne der humanen MT1-MMP wurde nach den Angaben in folgender Publikation kloniert: Lichte A, Kolkenbrock H, Tschesche H: The recombinant catalytic domain of membrane-type matrix metalloproteinase-1 (MT1-MMP) induces activation of progelatinase A and progelatinase A complexed with TIMP-2. FEBS letters (1996), 397, 277-282.
Nach Rückfaltung des Enyzms, Autoprozessierung zur aktiven Form und Gelfiltration an Sephadex G-50 (Laufpuffer 20 mM Tris-HCI pH 7,5, 5 mM CaCl2, 100 mM NaCI, 0,1 mM ZnCl2, 0,02% (w/v) Natriumazid) erhielten wir ein zu 95% reines Präparat.
as §1, §2

Assay [3] addresses T3, katalytische Domäne der MMP-8 (Homo sapiens, UniProt P22894).
T3 construct: dass wir statt des Gesamtenzyms nur dessen enzymatisch aktive katalytische Domäne in E. coli klonierten; made in house; host or cells: E. coli
Description: Die Nutzung der katalytischen Domäne der MMP-8 als weiteres Testenzym wurde deshalb gewählt, weil es eine hohe Stabilität besitzt und darüber hinaus als aktives Enzym vorliegt. Es muß deshalb nicht aktiviert werden, was eine der häufigsten Fehlerursachen darstellt, da die zur Aktivierung genutzten Quecksilberverbindungen häufig mit dem Testsystem bzw. dem Enzym interferieren und dadurch die Messergebnisse verfälschen werden. Die Klonierungsstrategie gestalteten wir so, dass wir statt des Gesamtenzyms nur dessen enzymatisch aktive katalytische Domäne in E. coli klonierten. Mit der konstruierten katalytischen Domäne der MMP-8 erzielten wir ein stabiles, enzymatisch aktives und hochreines Enzym, welches für die Routineuntersuchungen der inhibitorischen Aktivität der synthetisierten Inhibitoren sehr gut geeignet war und die Messergebnisse der einzelnen Messserien miteinander vergleichbar machte. Die Klonierung und Expression der katalytischen Domäne der MMP-8 wurde entsprechend den Angaben von SCHNIERER et al. (Schnierer S, Kleine T, Gote T, Hillemann A, Knäuper V, Tschesche H: The recombinant catalytic domain of human neutrophil collagenase lacks type I collagen substrate specificity. Biochem Biophys Res Comm (1993) vol. 191 No. 2, 319-326) durchgeführt.
as §1, §2

Setting [4] is: result in words, concentration not given.

Molecules are shown by their SMILES. pKi: −log10 of the molar value.

T1 sequence (P08254 100-272 limits assumed): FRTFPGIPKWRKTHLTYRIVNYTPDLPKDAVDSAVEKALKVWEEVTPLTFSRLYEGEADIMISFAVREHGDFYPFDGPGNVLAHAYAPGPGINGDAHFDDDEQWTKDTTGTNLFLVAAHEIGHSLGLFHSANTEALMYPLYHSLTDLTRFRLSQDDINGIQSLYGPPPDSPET
T3 sequence (P22894 100-262 limits assumed): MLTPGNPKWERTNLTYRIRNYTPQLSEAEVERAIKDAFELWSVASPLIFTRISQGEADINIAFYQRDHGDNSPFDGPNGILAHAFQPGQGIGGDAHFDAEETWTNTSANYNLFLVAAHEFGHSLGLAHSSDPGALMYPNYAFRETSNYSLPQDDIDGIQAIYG

For the molecule `O=c1[nH]c2ccccc2c(=O)n1CC(S)CS` (racemic) [Beispiel 1, (R,S)-3-(2,3-Dimercaptopropyl)chinazolin-2,4-(1H,3H)dion], the “MMP-3 Hemmung” value in assay [1] (bei 10 µM) came to 70% Hemmung bei 10 µM. In addition, in assay [2] (bei 10 µM), the “MT1-MMP Hemmung” value is recorded as 40% Hemmung bei 10 µM. In addition, in assay [3] (bei 10 µM), the “MMP-8 Hemmung” value was 70% Hemmung bei 10 µM.

As to `O=c1[nH]c2cc(Cl)ccc2c(=O)n1CC(S)CS` (racemic) [Beispiel 3, (R,S)-7-Chlor-3-(2,3-dimercaptopropyl)chinazolin-2,4-(1H,3H)dion], the “MMP-3 Hemmung” value in assay [1] (bei 10 µM) came out at 97% Hemmung bei 10 µM. Besides, in assay [2] (bei 10 µM), the “MT1-MMP Hemmung” value amounted to 73% Hemmung bei 10 µM. In addition, the “MMP-8 Hemmung” value in assay [3] (bei 10 µM) was 87% Hemmung bei 10 µM.

Take `O=c1[nH]c2ccc(Cl)cc2c(=O)n1CC(S)CS` (racemic) [Beispiel 4, (R,S)-6-Chlor-3-(2,3-dimercaptopropyl)chinazolin-2,4-(1H,3H)dion]: the “MMP-3 Hemmung” value in assay [1] (bei 10 µM) was 15% Hemmung bei 10 µM. For the same molecule, in assay [2] (bei 10 µM), the “MT1-MMP Hemmung” value turned out to be 60% Hemmung bei 10 µM. In assay [3] (bei 10 µM), the “MMP-8 Hemmung” value amounted to 60% Hemmung bei 10 µM.

For `Cc1cccc2[nH]c(=O)n(CC(S)CS)c(=O)c12` (racemic) [Beispiel 5, (R,S)-3-(2,3-Dimercaptopropyl)-5-methyl-chinazolin-2,4-(1H,3H)dion], the “MMP-3 Hemmung” value in assay [1] (bei 10 µM) is reported as 90% Hemmung bei 10 µM. Also, in assay [2] (bei 10 µM), the “MT1-MMP Hemmung” value is recorded as 80% Hemmung bei 10 µM. For the same molecule, in assay [3] (bei 10 µM), the “MMP-8 Hemmung” value was found to be 70% Hemmung bei 10 µM.

Take `COc1cc2[nH]c(=O)n(CC(S)CS)c(=O)c2cc1OC` (racemic) [Beispiel 7, (R,S)-3-(2,3-Dimercaptopropyl)-6,7-dimethoxy-chinazolin-2,4-(1H,3H)dion]: the pKi – broadly, the negative decadic logarithm of the Ki, by convention in mol/L – in assay [1] was 6.00. In assay [2] (setting [4]), the “MT1-MMP Hemmung” value is “keine Hemmung”. The “MMP-8 Hemmung” value in assay [3] (bei 1 µM) came out at 20% Hemmung bei 1 µM.

For the molecule `O=C(NCc1ccccc1)c1ccc2c(=O)n(CC(S)CS)c(=O)[nH]c2c1` (racemic) [Beispiel 8, (R,S)-N-Benzyl-3-(2,3-dimercaptopropyl)-2,4-dioxo-1,2,3,4-tetrahydrochinazolin-7-carboxamide], in assay [1] (bei 5 µM), the “MMP-3 Hemmung” value was found to be 30% Hemmung bei 5 µM. For the same molecule, the “MT1-MMP Hemmung” value in assay [2] (bei 5 µM) is 30% Hemmung bei 5 µM. Moreover, the “MMP-8 Hemmung” value in assay [3] (bei 5 µM) is on record as 30% Hemmung bei 5 µM.

In assay [1], `O=c1[nH]c2ccsc2c(=O)n1CC(S)CS` (racemic) [Beispiel 9, (R,S)-3-(2,3-Dimercaptopropyl)thieno[3,2-d]pyrimidin-2,4(1H,3H)-dion] had a negative-log Ki (pKi) of 6.60. In addition, the “MT1-MMP Hemmung” value in assay [2] (bei 3 µM) is listed as 50% Hemmung bei 3 µM. For the same molecule, the “MMP-8 Hemmung” value in assay [3] (bei 2,5 µM) is 50% Hemmung bei 2,5 µM.

For `O=c1[nH]c2sc3c(c2c(=O)n1CC(S)CS)CCCC3` (racemic) [Beispiel 10, (R,S)-3-(2,3-Dimercaptopropyl)-5,6,7,8-tetrahydro[1]benzothieno[2,3-d]pyrimidin-2,4(1H,3H)-dion], the “MMP-3 Hemmung” value in assay [1] (bei 10 µM) is reported as 55% Hemmung bei 10 µM. In addition, the “MT1-MMP Hemmung” value in assay [2] (bei 10 µM) was found to be 42% Hemmung bei 10 µM. Further, the “MMP-8 Hemmung” value in assay [3] (bei 10 µM) turned out to be 39% Hemmung bei 10 µM.

As to `O=c1[nH]c2sc(-c3ccccc3)cc2c(=O)n1CC(S)CS` (racemic) [Beispiel 11, (R,S)-3-(2,3-Dimercaptopropyl)-6-phenylthieno[2,3-d]pyrimidin-2,4(1H,3H)-dion], the “MMP-3 Hemmung” value in assay [1] (setting [4]) was “Keine Hemmung”. In addition, the “MT1-MMP Hemmung” value in assay [2] (setting [4]) is recorded as “Keine Hemmung”. For the same molecule, the “MMP-8 Hemmung” value in assay [3] (bei 1 µM) is 30% Hemmung bei 1 µM.
